Data as given in US20250170156A1, “TOLL-LIKE RECEPTOR LIGANDS” (INIMMUNE CORPORATION, priority 2018, published 2025).
pEC50: −log10 of the molar value.

Tests used:
primary hPBMCs [1] = assay: Induction of RANTES from primary hPBMCs (ELISA); conditions: Homo sapiens
mRAW264.7 cells = assay: Induction of MIP-1β cytokine from mRAW264.7 cells (ELISA); assay type: cell-based; conditions: Mus musculus, 18 hours, read-out: mRaw MIP-1β EC50
Experimental: Induction of MIP-1β cytokine from mRAW264.7 cells. […] Treatments started at 20 μM concentration with a 5-fold serial dilution until 3.2768E-09 μM. Supernatants were harvested and analyzed for production of MIP-1β via ELISA (R& D Systems-cat #DY451).

hTLR4 = biological target: T1, hTLR4 (Homo sapiens, UniProt O00206+Q9Y6Y9); assay: HEK hTLR4 NF-κB driven SEAP reporter assay (hTLR4 activation); assay type: cell-based; conditions: 18 hours
T1 construct: expressed in transfected cells; host or cells: HEK cells expressing hTLR4 and an NF-κB driven SEAP reporter
Experimental: hTLR4 activation. HEK hTLR4-expressing cells were treated with 100 μM concentration of test compound followed by a 5-fold dilution series. HEK hTLR4-expressing cells also contained an NF-κB driven SEAP reporter and were stimulated with the indicated concentration (FIG. 1A-1C) of the test compound for 18 hours followed by assessment of the cellular supernatant for SEAP by a Quantikine SEAP assay (InvivoGen). The SEAP assay was used to look at secretion of the NF-κB driven alkaline-phosphatase reporter gene in response to TLR4 activation by the compounds and results are interpreted both in terms of potency of the compounds to induce SEAP activation (i.e. potency where a lower EC50 indicates higher potency) and efficacy for receptor activation (i.e. maximal SEAP induction).

primary hPBMCs [2] = assay: Induction of MIP-1β from primary hPBMCs (ELISA); conditions: Homo sapiens
[3] = Stability of aqueous formulations by reverse-phase-HPLC; assay type: physicochemical; conditions: 40° C.; formulated in 2.5% glycine (FIGS. 9, 12)
Experimental: Formulation. The salted compound was accurately weighed into depyrogenated glass vials, and the required volume of aqueous vehicle added to attain the desired concentration. Vials were placed in a sonication bath (sonication bath temperature≤45° C.) to assist solubility and reduce particle size to achieve sterile filtration without significant loss of compound. Once the solution appeared homogeneous, the particle size was periodically monitored by dynamic light scattering until the solution turned clear and the particle size was <200 mn, or the particle size no longer reduced with continued sonication. The formulation was filtered through a 0.22p PVDF membrane filter into a depyrogenated glass vial and the resulting solution quantitated by RP-HPLC.
Aqueous formulations of compounds 1, 2, 3, 4, 5 and 6 were aliquoted into small depyrogenated vials for stability evaluation at temperatures of 2°-8° C., 25° C., and 40° C. This mirrors ICH stability temperature guidelines, but humidity was not controlled. A vial was pulled for each time point/temperature and analyzed by reverse-phase-HPLC (FIGS. 9-14) according to the following schedule starting from 2 weeks to up to 12 months.

hMM6 cells = assay: Induction of MIP-1β cytokine from hMM6 cells (ELISA); assay type: cell-based; conditions: Homo sapiens, 18 hours
Experimental: Induction of […] cytokine from hMM6 cells. The compounds were next tested in the established MM6 potency assay measuring MIP-1β cytokine production as an output measure of compound potency. Human monocytic cell line, Mono-Mac-6 (hMM6) was obtained from DSMZ (Brunswick, Germany). […] Treatments started at a 100 µM concentration proceeded with a 16-point, 5-fold dilution series. Supernatants were harvested and analyzed for production of MIP-1β via ELISA (R&D systems, catalog #DY271).

[4] = tested on: influenza virus antigen A/Victoria/210/2009-H3N2; assay: Vaccine adjuvant study, murine influenza virus vaccination model; assay type: in vivo, BALB/c mice; conditions: intramuscular, 0.1, 0.01 or 0.001 μg with 0.2 μg antigen, 14 days after single immunization, 2% glycine
Experimental: Vaccine adjuvant study. Compounds 2, 4, 5 and 7 were evaluated as vaccine adjuvant in a murine influenza virus vaccination model. 7-9 week old BALB/c mice (10 mice per group) were injected intramuscularly in a hind limb with the influenza virus antigen A/Victoria/210/2009-H3N2 (0.2 μg/mouse) with or without 0.1, 0.01 or 0.001 μg of compound 2, 4, 5 or 7 (formulated in 2% glycine). Fourteen days after a single immunization, animals were bled via the submandibular vein and serum was collected to assay for A/Victoria specific antibodies by ELISA assay (FIG. 7).

[5] = read-out: hPBMCs EC50 RANTES, Table 3a, Average of Donors 10, 5, 2
[6] = read-out: hPBMCs EC50 RANTES, Table 3a, Donor 2
[7] = read-out: hPBMCs EC50 RANTES, Table 3a, Donor 5
[8] = read-out: hPBMCs EC50 RANTES, Table 3a, Donor 10
[9] = read-out: hPBMCs EC50 RANTES, Table 4b, Average of Donors 22, 5
[10] = read-out: hPBMCs EC50 RANTES, Table 4b, Donor 5
[11] = read-out: hPBMCs EC50 RANTES, Table 4b, Donor 22
[12] = read-out: hPBMCs EC50 MIP-1β, Table 3a, Average of Donors 10, 5, 2
[13] = read-out: hPBMCs EC50 MIP-1β, Table 3a, Donor 2
[14] = read-out: hPBMCs EC50 MIP-1β, Table 3a, Donor 5
[15] = read-out: hPBMCs EC50 MIP-1β, Table 3a, Donor 10
[16] = read-out: hPBMCs EC50 MIP-1β, Table 4b, Average of Donors 22, 5
[17] = read-out: hPBMCs EC50 MIP-1β, Table 4b, Donor 5
[18] = read-out: hPBMCs EC50 MIP-1β, Table 4b, Donor 22

T1 sequence (O00206 24-839): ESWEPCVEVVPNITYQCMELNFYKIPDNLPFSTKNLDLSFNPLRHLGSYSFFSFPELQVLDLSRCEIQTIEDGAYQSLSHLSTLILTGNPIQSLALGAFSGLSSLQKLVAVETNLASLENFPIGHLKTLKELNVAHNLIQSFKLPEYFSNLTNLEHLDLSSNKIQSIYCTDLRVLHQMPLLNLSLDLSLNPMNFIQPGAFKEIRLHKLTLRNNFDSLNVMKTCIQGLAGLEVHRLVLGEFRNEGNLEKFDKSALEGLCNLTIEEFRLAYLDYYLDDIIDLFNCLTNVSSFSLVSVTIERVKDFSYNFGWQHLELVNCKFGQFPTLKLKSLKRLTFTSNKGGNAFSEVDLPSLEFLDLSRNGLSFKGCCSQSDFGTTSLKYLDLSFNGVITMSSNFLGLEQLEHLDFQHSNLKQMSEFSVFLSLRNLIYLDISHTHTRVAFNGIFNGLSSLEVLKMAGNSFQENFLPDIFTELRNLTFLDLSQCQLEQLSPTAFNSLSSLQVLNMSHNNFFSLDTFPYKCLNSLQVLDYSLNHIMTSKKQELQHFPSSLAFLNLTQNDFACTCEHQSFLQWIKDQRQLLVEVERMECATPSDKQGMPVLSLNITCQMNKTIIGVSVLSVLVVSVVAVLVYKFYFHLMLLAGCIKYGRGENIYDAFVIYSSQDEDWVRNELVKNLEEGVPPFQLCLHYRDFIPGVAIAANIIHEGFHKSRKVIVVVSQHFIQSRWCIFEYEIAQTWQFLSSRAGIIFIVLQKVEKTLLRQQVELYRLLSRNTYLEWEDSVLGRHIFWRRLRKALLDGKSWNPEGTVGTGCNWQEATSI
T1 sequence (Q9Y6Y9 17-160 limits assumed): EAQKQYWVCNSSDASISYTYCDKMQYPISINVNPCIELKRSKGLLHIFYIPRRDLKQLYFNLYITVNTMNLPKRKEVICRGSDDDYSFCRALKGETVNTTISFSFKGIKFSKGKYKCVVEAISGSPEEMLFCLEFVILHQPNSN

SMILES | pEC50 (primary hPBMCs [1]; [5]) | pEC50 (primary hPBMCs [1]; [6]) | pEC50 (primary hPBMCs [1]; [7]) | pEC50 (primary hPBMCs [1]; [8]) | pEC50 (primary hPBMCs [1]; [9]) | pEC50 (primary hPBMCs [1]; [10]) | pEC50 (primary hPBMCs [1]; [11]) | pEC50 (mRAW264.7 cells) | pEC50 (hTLR4; Table 1a) | pEC50 (hTLR4; Table 1b) | pEC50 (primary hPBMCs [2]; [12]) | pEC50 (primary hPBMCs [2]; [13]) | pEC50 (primary hPBMCs [2]; [14]) | pEC50 (primary hPBMCs [2]; [15]) | pEC50 (primary hPBMCs [2]; [16]) | pEC50 (primary hPBMCs [2]; [17]) | pEC50 (primary hPBMCs [2]; [18]) | time with no degradation [3] | pEC50 (hMM6 cells) | adjuvant effect on flu-specific IgG2a antibody titers compared to antigen alone [4]
CCCCCCCCCCC[C@H](CC(=O)NCCO[C@@H]1O[C@H](CO)[C@@H](OP(=O)(O)O)[C@@H](NC(=O)C[C@@H](CCCCCCCCCCC)OC(=O)CCCCCCCCC)[C@H]1NC(=O)C[C@@H](CCCCCCCCCCC)OC(=O)CCCCCCCCC)OC(=O)CCCCCCCCC [Compound 1, 2-[(R)-3-decanoyloxytetradecanoylamino]ethyl 2,3-di-[(R)-3-decanoyloxytetradecanoylamino]-2,3-dideoxy-4-O-phosphono-β-D-allopyranoside] | 10.69 | 10.92 | 10.60 | 10.62 | 9.87 | 10.05 | 9.75 | 10.24 | 7.86 | 7.71 | 10.67 | 10.70 | 10.62 | 10.69 | 9.74 | 10.12 | 9.55 | 6 weeks | 9.60 | –
CCCCCCCCCCC[C@H](CC(=O)N[C@H]1[C@H](OC[C@H](NC(=O)C[C@@H](CCCCCCCCCCC)OC(=O)CCCCCCCCC)C(=O)OC)O[C@H](CO)[C@@H](OP(=O)(O)O)[C@H]1NC(=O)C[C@@H](CCCCCCCCCCC)OC(=O)CCCCCCCCC)OC(=O)CCCCCCCCC [Compound 3, N—[(R)-3-Decanoyloxytetradecanoyl]-O-[2,3-di-[(R)-3-decanoyloxytetradecanoylamino]-2,3-dideoxy-4-O-phosphono-β-D-allopyranosyl]-L-serine methyl ester] | 10.14 | 10.80 | 9.80 | 10.38 | – | – | – | 10.95 | 8.40 | – | 10.32 | 10.50 | 10.14 | 10.40 | – | – | – | – | 9.34 | –
CCCCCCCCCCC[C@H](CC(=O)NC1C(NC(=O)C[C@@H](CCCCCCCCCCC)OCCCCCCCCCC)[C@H](OP(=O)(O)O)C(CO)O[C@H]1OC[C@H](NC(=O)C[C@@H](CCCCCCCCCCC)OCCCCCCCCCC)C(=O)O)OCCCCCCCCCC (stereo partly drawn) [Compound 4] | 11.08 | 11.08 | 11.09 | 11.08 | 10.73 | 10.83 | 10.66 | 11.85 | 8.88 | 8.86 | 11.31 | 11.23 | 11.57 | 11.21 | 10.86 | 10.85 | 10.88 | – | 9.91 | dose dependent adjuvant effect
CCCCCCCCCCC[C@H](CC(=O)NC1[C@H](OC[C@H](NC(=O)C[C@@H](CCCCCCCCCCC)OCCCCCCCCCC)C(=O)O)OC(CO)[C@@H](OS(=O)(=O)O)[C@@H]1NC(=O)C[C@@H](CCCCCCCCCCC)OCCCCCCCCCC)OCCCCCCCCCC (stereo partly drawn) [Compound 5, N—[(R)-3-Decyloxytetradecanoyl]-O-[2,3-di-[(R)-3-decyloxytetradecanoylamino]-2,3-dideoxy-4-O-sulfoxy-β-D-allopyranosyl]-L-serine] | – | – | – | – | 10.62 | 10.81 | 10.50 | – | – | 8.54 | – | – | – | – | 10.57 | 10.82 | 10.41 | – | – | dose dependent adjuvant effect
